This note sets out measurements from patent US20210403924A1, “Method for selecting cells based on CRISPR/Cas-mediated integration of a detectable tag to a target protein” (Hoffmann-La Roche Inc., priority 2018, published 2021).

Data set [1] has as its system HEK293A wild-type cells. Briefly: CellTiter-Glo cell viability assay, titration of antibiotic concentrations (killing curve). In kind it is cell-based, human. The note with it: HEK293A wild-type cells. On the procedure: (§1) HEK293A wild-type cells were treated for 72 h with various concentrations of the antibiotics (a) hygromycin B and (b) puromycin, respectively. Cell viability was determined with the CellTiter-Glo assay.
(§2) The CellTiter-Glo assay was used to determine the number of viable cells in a sample. The method is based on the quantification of the ATP amount as an indicator of metabolically active cells. The CellTiter-Glo Luminescent Cell Viability Assay Kit from Promega was used for the experiments. The CellTiter-Glo reagent was freshly prepared before each experiment. For this purpose, the substrate, which contains inter alia luciferin and a luciferase, was dissolved in the accompanying buffer. After direct addition to the medium of the cells, lysis of the cells occurs first. Viable cells produce ATP in their mitochondria, which is thereby released. In the presence of ATP, the luciferin is converted by the UltraGlo r-luciferase. This produces a stable luminescence signal which is proportional to the amount of ATP present and thus to the number of viable cells.
(§3) The assay was used to optimize transfection and to titrate the optimal antibiotic concentrations of hygromycin B and puromycin for post-transfection selection. In all assays, cells were seeded in a black flat bottom 96-well plate with a transparent bottom. When titrating the antibiotic concentrations, 7,500 cells were seeded per well. The next day, the cells were treated with various concentrations of the antibiotic. After […], the viability of the cells was determined by the assay in which 100 μL of the CellTiter-Glo reagent was added to each well. Subsequently, the plate was shaken on a plate shaker for 2 min. at 200 rpm. After incubation in the dark for 10 minutes, the luminescence signal was measured on the luminometer.

Test in data set [2]: as above
It is filed as cell-based, human. The note with it: human. On the procedure: as §1, §2, §3

Where a name gives a salt, the structure may show the parent alone. A value given as a limit tells only on which side of the number the result lay.

Turning to `CN[C@H]1C[C@@H](N)[C@H](O)[C@@H](O[C@@H]2O[C@H](CO)[C@H](O)[C@@H]3OC4(O[C@H]23)O[C@H]([C@@H](N)CO)[C@H](O)[C@H](O)[C@H]4O)[C@@H]1O` (stereo partly shown) [hygromycin B, Hygromycin B], the cell viability entry in data set [1] (20 μg/mL, 72 h) is recorded as “less than 20%”. The “cell viability expected at selection concentration” value in data set [1] (50 μg/mL) is recorded as “about 12%”.

One may read the viability as a per cent measure of how many cells are alive, often set against a control. The low end stands for a greater loss of cells, the high end for better survival. Consider `COc1ccc(C[C@H](N)C(=O)N[C@H]2[C@@H](O)[C@H](n3cnc4c(N(C)C)ncnc43)O[C@@H]2CO)cc1` [puromycin, Puromycin dihydrochloride], for which the figures for the viability at 72 h, 2 μg/mL in data set [2] (cell viability) and in data set [2] (cell viability expected at selection concentration) were less than 15% and roughly 12%, respectively.
